According to US8759535B2, “Substituted fused imidazole derivatives, pharmaceutical compositions, and methods of use thereof” (High Point Pharmaceuticals, LLC, priority 2010, dated 2014):
Counter-ions that a name gives are not always drawn.

Each molecule was assayed on HMOX1 (assay: HMOX1 Protein Assay (immunostaining of HO-1 in NHLF cells, GE InCell 1000)). Details: Homo sapiens, fold change above DMSO treated cells, 3 μM compound (asterisk), 16 h.
Format: cell-based
Summary of the method: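 Fold induction of HO-1 over vehicle, normally at 5 μM compound (asterisk marks 3 μM), in 0.8% DMSO medium. Normal human lung fibroblasts were treated 16 h, then paraformaldehyde-fixed, anti-HO-1/Alexa 488 stained with Hoechst, and read by high-content imaging.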

SMILES	fold induction at 3 µM
Cn1c(Nc2nc3ccc(Cl)cc3s2)nc2cc(C(=O)NCCOCC(F)F)ccc21 [Example 259, 2-(6-Chloro-benzothiazol-2-ylamino)-1-methyl-1H-benzoimidazole-5-carboxylic acid [2-(2,2-difluoro-ethoxy)-ethyl]-amide]	25.4
COCCOCCNC(=O)c1ccc2c(c1)nc(Nc1nc3ccc(C(F)(F)F)cc3s1)n2C [Example 262, 1-Methyl-2-(6-trifluoromethyl-benzothiazol-2-ylamino)-1H-benzoimidazole-5-carboxylic acid [2-(2-methoxy-ethoxy)-ethyl]-amide]	40
Cn1c(Nc2nc3ccc(Cl)cc3s2)nc2cc(C(=O)NCCOCCN)ccc21 [Example 269, 2-(6-Chloro-benzothiazol-2-ylamino)-1-methyl-1H-benzoimidazole-5-carboxylic acid [2-(2-amino-ethoxy)-ethyl]-amide]	19.9
CCS(=O)(=O)CCNC(=O)c1ccc2c(c1)nc(Nc1nc3ccc(Cl)cc3s1)n2C [Example 277, 2-(6-Chloro-benzothiazol-2-ylamino)-1-methyl-1H-benzoimidazole-5-carboxylic acid (2-ethanesulfonyl-ethyl)-amide]	38.3
Cn1c(Nc2nc3ccc(Cl)cc3s2)nc2cc(C(=O)NCCS(=O)(=O)CCO)ccc21 [Example 278, 2-(6-Chloro-benzothiazol-2-ylamino)-1-methyl-1H-benzoimidazole-5-carboxylic acid [2-(2-hydroxy-ethanesulfonyl)-ethyl]-amide]	36.5

Same assay, conditions: Homo sapiens, fold change above DMSO treated cells, 5 μM compound, 16 h

SMILES	fold induction at 5 µM
Cn1c(Nc2nc3ccc(OC(F)(F)F)cc3s2)nc2cc(C(=O)NCCc3cccc(O)c3)ccc21 [Example 252, 1-Methyl-2-(6-trifluoromethoxy-benzothiazol-2-ylamino)-1H-benzoimidazole-5-carboxylic acid [2-(3-hydroxy-phenyl)-ethyl]-amide]	13.1
Cn1c(Nc2nc3ccc(OC(F)(F)F)cc3s2)nc2cc(C(=O)NCCC3CCC(O)CC3)ccc21 (stereo not drawn) [Example 253, 1-Methyl-2-(6-trifluoromethoxy-benzothiazol-2-ylamino)-1H-benzoimidazole-5-carboxylic acid [2-(4-hydroxy-cyclohexyl)-ethyl]-amide]	26.6
Cn1c(Nc2nc3ccc(OC(F)(F)F)cc3s2)nc2cc(C(=O)NC[C@H]3CC[C@H](CO)CC3)ccc21 [Example 254, 1-Methyl-2-(6-trifluoromethoxy-benzothiazol-2-ylamino)-1H-benzoimidazole-5-carboxylic acid (trans-4-hydroxymethyl-cyclohexylmethyl)-amide]	47.4
Cn1c(Nc2nc3ccc(Cl)cc3s2)nc2cc(C(=O)NC[C@H]3CC[C@H](CO)CC3)ccc21 [Example 255, 2-(6-Chloro-benzothiazol-2-ylamino)-1-methyl-1H-benzoimidazole-5-carboxylic acid (trans-4-hydroxymethyl-cyclohexylmethyl)-amide]	49.3
Cn1c(Nc2nc3ccc(OC(F)(F)F)cc3s2)nc2cc(C(=O)NCCOCCOCCO)ccc21 [Example 256, 1-Methyl-2-(6-trifluoromethoxy-benzothiazol-2-ylamino)-1H-benzoimidazole-5-carboxylic acid {2-[2-(2-hydroxy-ethoxy)-ethoxy]-ethyl}-amide]	48
Cn1c(Nc2nc3ccc(C(F)(F)F)cc3s2)nc2cc(C(=O)NCCOCCF)ccc21 [Example 257, 1-Methyl-2-(6-trifluoromethyl-benzothiazol-2-ylamino)-1H-benzoimidazole-5-carboxylic acid [2-(2-fluoro-ethoxy)-ethyl]-amide]	21.9
Cn1c(Nc2nc3ccc(OC(F)(F)F)cc3s2)nc2cc(C(=O)NCCOCC(F)F)ccc21 [Example 258, 1-Methyl-2-(6-trifluoromethoxy-benzothiazol-2-ylamino)-1H-benzoimidazole-5-carboxylic acid [2-(2,2-difluoro-ethoxy)-ethyl]-amide]	24.6
COCCOCCNC(=O)c1ccc2c(c1)nc(Nc1nc3ccc(OC(F)(F)F)cc3s1)n2C [Example 260, 1-Methyl-2-(6-trifluoromethoxy-benzothiazol-2-ylamino)-1H-benzoimidazole-5-carboxylic acid [2-(2-methoxy-ethoxy)-ethyl]-amide]	27.1
COCCOCCNC(=O)c1ccc2c(c1)nc(Nc1nc3ccc(Cl)cc3s1)n2C [Example 261, 2-(6-Chloro-benzothiazol-2-ylamino)-1-methyl-1H-benzoimidazole-5-carboxylic acid [2-(2-methoxy-ethoxy)-ethyl]-amide]	35.7
Cn1c(Nc2nc3ccc(OC(F)(F)F)cc3s2)nc2cc(C(=O)NCCC3CCCCO3)ccc21 (stereo not drawn) [Example 263, 1-Methyl-2-(6-trifluoromethoxy-benzothiazol-2-ylamino)-1H-benzoimidazole-5-carboxylic acid [2-(tetrahydro-pyran-2-yl)-ethyl]-amide]	19.9
Cn1c(Nc2nc3ccc(OC(F)(F)F)cc3s2)nc2cc(C(=O)NCCC3CCOCC3)ccc21 [Example 264, 1-Methyl-2-(6-trifluoromethoxy-benzothiazol-2-ylamino)-1H-benzoimidazole-5-carboxylic acid [2-(tetrahydro-pyran-4-yl)-ethyl]-amide]	22.9
Cn1c(Nc2nc3ccc(OC(F)(F)F)cc3s2)nc2cc(C(=O)NCCOCCC#N)ccc21 [Example 265, 1-Methyl-2-(6-trifluoromethoxy-benzothiazol-2-ylamino)-1H-benzoimidazole-5-carboxylic acid [2-(2-cyano-ethoxy)-ethyl]-amide]	55
Cn1c(Nc2nc3ccc(Cl)cc3s2)nc2cc(C(=O)NCCOCCC#N)ccc21 [Example 266, 2-(6-Chloro-benzothiazol-2-ylamino)-1-methyl-1H-benzoimidazole-5-carboxylic acid [2-(2-cyano-ethoxy)-ethyl]-amide]	57
Cn1c(Nc2nc3ccc(OC(F)(F)F)cc3s2)nc2cc(C(=O)NCCOCC(N)=O)ccc21 [Example 267, 1-Methyl-2-(6-trifluoromethoxy-benzothiazol-2-ylamino)-1H-benzoimidazole-5-carboxylic acid (2-carbamoylmethoxy-ethyl)-amide]	58.8
Cn1c(Nc2nc3ccc(OC(F)(F)F)cc3s2)nc2cc(C(=O)NCCOCCN)ccc21 [Example 268, 1-Methyl-2-(6-trifluoromethoxy-benzothiazol-2-ylamino)-1H-benzoimidazole-5-carboxylic acid [2-(2-amino-ethoxy)-ethyl]-amide]	28.4
Cn1c(Nc2nc3c(Cl)cccc3s2)nc2cc(C(=O)NCCOCCN)ccc21 [Example 270, 2-(4-Chloro-benzothiazol-2-ylamino)-1-methyl-1H benzoimidazole-5-carboxylic acid [2-(2-amino-ethoxy)-ethyl]-amide]	14.6
CNCCOCCNC(=O)c1ccc2c(c1)nc(Nc1nc3ccc(OC(F)(F)F)cc3s1)n2C [Example 271, 1-Methyl-2-(6-trifluoromethoxy-benzothiazol-2-ylamino)-1H-benzoimidazole-5-carboxylic acid [2-(2-methylamino-ethoxy)-ethyl]-amide hydrochloride]	69.9
CNCCOCCNC(=O)c1ccc2c(c1)nc(Nc1nc3ccc(Cl)cc3s1)n2C [Example 272, 2-(6-Chloro-benzothiazol-2-ylamino)-1-methyl-1H-benzoimidazole-5-carboxylic acid [2-(2-methylamino-ethoxy)-ethyl]-amide hydrochloride]	86.5
CN(C)CCOCCNC(=O)c1ccc2c(c1)nc(Nc1nc3ccc(OC(F)(F)F)cc3s1)n2C [Example 273, 1-Methyl-2-(6-trifluoromethoxy-benzothiazol-2-ylamino)-1H-benzoimidazole-5-carboxylic acid [2-(2-dimethylamino-ethoxy)-ethyl]-amide]	25.3
CN(C)CCOCCNC(=O)c1ccc2c(c1)nc(Nc1nc3ccc(Cl)cc3s1)n2C [Example 274, 2-(6-Chloro-benzothiazol-2-ylamino)-1-methyl-1H-benzoimidazole-5-carboxylic acid [2-(2-dimethylamino-ethoxy)-ethyl]-amide]	65.9
CC(=O)NCCOCCNC(=O)c1ccc2c(c1)nc(Nc1nc3ccc(OC(F)(F)F)cc3s1)n2C [Example 275, 1-Methyl-2-(6-trifluoromethoxy-benzothiazol-2-ylamino)-1H-benzoimidazole-5-carboxylic acid [2-(2-acetylamino-ethoxy)-ethyl]-amide]	77.4
Cn1c(Nc2nc3ccc(OC(F)(F)F)cc3s2)nc2cc(C(=O)NCCOCCNS(C)(=O)=O)ccc21 [Example 276, 1-Methyl-2-(6-trifluoromethoxy-benzothiazol-2-ylamino)-1H-benzoimidazole-5-carboxylic acid [2-(2-methanesulfonylamino-ethoxy)-ethyl]-amide]	61.2
Cn1c(Nc2nc3ccc(Cl)cc3s2)nc2cc(C(=O)NCCNCCF)ccc21 [Example 279, 2-(6-Chloro-benzothiazol-2-ylamino)-1-methyl-1H-benzoimidazole-5-carboxylic acid [2-(2-fluoro-ethylamino)-ethyl]-amide hydrochloride]	89.2
Cn1c(Nc2nc3ccc(OC(F)(F)F)cc3s2)nc2cc(C(=O)NC[C@H](O)CO)ccc21 [Example 280, 1-Methyl-2-(6-trifluoromethoxy-benzothiazol-2-ylamino)-1H-benzoimidazole-5-carboxylic acid ((S)-2,3-dihydroxy-propyl)-amide]	38.8
Cn1c(Nc2nc3ccc(OC(F)(F)F)cc3s2)nc2cc(C(=O)NC[C@@H](O)CO)ccc21 [Example 281, 1-Methyl-2-(6-trifluoromethoxy-benzothiazol-2-ylamino)-1H-benzoimidazole-5-carboxylic acid ((R)-2,3-dihydroxy-propyl)-amide]	35.6
